Holding throughout (assay type): in vivo
Experiment [1] concerns Zea mays. The experiment in a line: greenhouse post-emergence herbicidal activity on crop plant corn (use examples). The following applies: ZEAMX (corn, crop plant), scale 0 to 100; for plant injury at 125 g/ha: 0.125 kg/ha. From the text:
(§1) The seeds of the test plants were sown separately for each species. For the pre-emergence treatment, the active ingredients, which had been suspended or emulsified in water, were applied directly after sowing by means of finely distributing nozzles. The containers were irrigated gently to promote germination and growth and subsequently covered with transparent plastic hoods until the plants had rooted. This cover caused uniform germination of the test plants, unless this had been impaired by the active ingredients. For the post-emergence treatment, the test plants were first grown to a height of 3 to 15 cm, depending on the plant habit, and only then treated with the active ingredients which had been suspended or emulsified in water. For this purpose, the test plants were either sown directly and grown in the same containers, or they were first grown separately as seedlings and transplanted into the test containers a few days prior to treatment. Depending on the species, the plants were kept at 10-25° C. or 20-35° C., respectively. The test period extended over 2 to 4 weeks. During this time, the plants were tended, and their response to the individual treatments was evaluated. Evaluation was carried out using a scale from 0 to 100. 100 means no emergence of the plants, or complete destruction of at least the aerial moieties, and 0 means no damage, or normal course of growth. A good herbicidal activity is given at values of at least 70 and a very good herbicidal activity is given at values of at least 85. The plants used in the greenhouse experiments were of the following species: [table]

The subject of the next experiment is Amaranthus retroflexus. The experiment in a line: greenhouse post-emergence herbicidal activity (use examples). The settings on record: AMARE, scale 0 to 100.
From the text: as §1

The test system of a further experiment is Chenopodium album. The experiment is described as above. The following applies: CHEAL, 0.125 kg/ha, scale 0 to 100.
From the text: as §1

The subject of experiment [2] is Echinocloa crus-galli. Described as above. The settings on record: Echinochloa crus-galli, ECHCG, scale 0 to 100.
From the text: as §1

Experiment [3] relates to Zea mays. Kind of experiment: comparative greenhouse post-emergence herbicidal activity on crop plant corn. The settings on record: ZEAMX (corn, crop plant), 20 days, scale 0 to 100. As to the method:
(§2) The herbicidal activity of the compounds I-5 (N-[2,6-dichloro-3-(8-hydroxy-6,6-dioxo-5H-thiopyrano[4,3-b]pyridin-7-yl)phenyl]-N-methyl-acetamide) and 1-19 (Methyl N-[2,6-dichloro-3-(8-hydroxy-5,5-dimethyl-6,6-dioxo-thiopyrano[4,3-b]pyridin-7-yl)phenyl]-N-methyl-carbamate) according to this invention was tested in comparison with compound I-5 disclosed on page 147 of WO 2012/084755 A1 (not of the invention). These comparative experiments were performed in greenhouse by using the following procedure:
(§3) The culture containers used were plastic flowerpots containing loamy sand with approximately 3.0% of humus as the substrate. The seeds of the test plants were sown separately for each species.
(§4) For the post-emergence treatment, the test plants were first grown to a height of 3 to 15 cm, depending on the plant habit, and only then treated with the active ingredients which had been suspended or emulsified in water using a volume of 375 I/ha and 1% of an Adjuvant. For this purpose, the test plants were either sown directly and grown in the same containers, or they were first grown separately as seedlings and transplanted into the test containers a few days prior to treatment.
(§5) Depending on the species, the plants were kept at 10-25° C. (cold season grasses) or 20-35° C. (warm season grasses), respectively.
(§6) The test period extended over 20 days. During this time, the plants were tended, and their response to the individual treatments was evaluated.
(§7) Evaluation was carried out using a scale from 0 to 100. 100 means complete destruction of at least the aerial moieties, and 0 means no damage, or normal course of growth. A good herbicidal activity is given at values of at least 70 and a very good herbicidal activity is given at values of at least 85.
(§8) The plants used in the greenhouse experiments were of the following species:
(§9) The application rates in the post-emergence treatment were 0.1, 0.05 and 0.025 kg/ha, respectively.

Another experiment has as its system Digitaria sanguine. Kind of experiment: comparative greenhouse post-emergence herbicidal activity. The settings on record: DIGSA, 20 days, scale 0 to 100. The procedure: as §2, §3, §4, §5, §6, §7, §8, §9
Another experiment deals with Bromus steliris. The description is as above. The following applies: BROST, 20 days, scale 0 to 100. The procedure:
as §2, §3, §4, §5, §6, §7, §8, §9

Experiment [4] has as its system Setaria viridis. Described as above. The following applies: SETVI, 20 days, scale 0 to 100. The procedure: as §2, §3, §4, §5, §6, §7, §8, §9
Another experiment has as its system Lolium Multiflori. The description is as above. The following applies: LOLMU, 20 days, scale 0 to 100. The procedure:
as §2, §3, §4, §5, §6, §7, §8, §9

Another experiment deals with Ambrosia artimisifolio. The description is as above. The settings on record: AMBEL, 20 days, scale 0 to 100. As to the method: as §2, §3, §4, §5, §6, §7, §8, §9
The subject of the next experiment is Avena Fatua. The description is as above. The following applies: AVEFA, 20 days, scale 0 to 100. As to the method: as §2, §3, §4, §5, §6, §7, §8, §9
In a further experiment the test system is Abuthilon avicennae. The description is as above. The settings on record: ABUTH, 20 days, scale 0 to 100. As to the method: as §2, §3, §4, §5, §6, §7, §8, §9
Experiment [5] relates to Polygonum convolvulus. The experiment is described as above. The settings on record: POLCO, 20 days, scale 0 to 100. The procedure: as §2, §3, §4, §5, §6, §7, §8, §9
The test system of experiment [6] is Echinocloa crus-galli. The description is as above. The following applies: ECHCG, 20 days, scale 0 to 100. As to the method:
as §2, §3, §4, §5, §6, §7, §8, §9

The test system of another experiment is Setaria faberi. The experiment in a line: greenhouse post-emergence herbicidal activity (use examples). The following applies: SETFA, scale 0 to 100.
From the text: as §1

The subject of the next experiment is Stellaria media. The description is as above. The settings on record: STEME, scale 0 to 100.
From the text: as §1

For experiment [7], the system named is Setaria viridis. The description is as above. The settings on record: SETVI, 0.063 kg/ha, scale 0 to 100.
From the text: as §1

For experiment [8], the system named is Polygonum convolvulus. The experiment is described as above. The settings on record: POLCO, 0.063 kg/ha, scale 0 to 100.
From the text: as §1

In the case of `CC(=O)N(C)c1c(Cl)ccc(C2=C(O)c3ncccc3CS2(=O)=O)c1Cl` [Compound I-5, N-[2,6-dichloro-3-(8-hydroxy-6,6-dioxo-5H-thiopyrano[4,3-b]pyridin-7-yl)phenyl]-N-methyl-acetamide], the plant injury at 125 g/ha with Zea mays [1] is 10%. Further, the Herbicidal activity is 98 in the experiment with Amaranthus retroflexus (0.125 kg/ha); 98 in the experiment on Chenopodium album; 15 in the experiment on Zea mays [3] (0.025 kg/ha); 45 with Zea mays [3] (0.05 kg/ha); 90 in the experiment with Digitaria sanguine (0.025 kg/ha); 95 with Digitaria sanguine (0.05 kg/ha). Besides, the Herbicidal activity was 100 in the experiment with Digitaria sanguine (0.1 kg/ha); 98 with Bromus steliris (0.025 kg/ha); 98 in the experiment with Bromus steliris (0.05 kg/ha); 98 in the experiment with Bromus steliris (0.1 kg/ha); 90 in the experiment with Setaria viridis [4] (0.025 kg/ha); 90 in the experiment with Setaria viridis [4] (0.05 kg/ha). Also, the Herbicidal activity is reported as 90 with Setaria viridis [4] (0.1 kg/ha); 25 in the experiment with Lolium Multiflori (0.025 kg/ha); 55 with Lolium Multiflori (0.05 kg/ha); 80 in the experiment with Lolium Multiflori (0.1 kg/ha); 90 with Ambrosia artimisifolio (0.025 kg/ha); 100 in the experiment on Ambrosia artimisifolio (0.05 kg/ha). Moreover, the Herbicidal activity is reported as 95 in the experiment on Ambrosia artimisifolio (0.1 kg/ha); 55 with Avena Fatua (0.025 kg/ha); 85 in the experiment with Avena Fatua (0.05 kg/ha); 90 with Avena Fatua (0.1 kg/ha); 70 in the experiment with Abuthilon avicennae (0.025 kg/ha); 80 with Abuthilon avicennae (0.05 kg/ha). Further, the Herbicidal activity in the experiment on Abuthilon avicennae (0.1 kg/ha) is on record as 90; in the experiment on Polygonum convolvulus [5] (0.025 kg/ha) it was 35; in the experiment with Polygonum convolvulus [5] (0.05 kg/ha), 45; in the experiment on Polygonum convolvulus [5] (0.1 kg/ha), 80; with Echinocloa crus-galli [6] (0.025 kg/ha), 90; in the experiment with Echinocloa crus-galli [6] (0.05 kg/ha), 100. The compound also gave a Herbicidal activity with Echinocloa crus-galli [6] (0.1 kg/ha) of 100. In addition, the pest or weed control at 125 g/ha with Echinocloa crus-galli [2] (0.125 kg/ha) was determined as 95%.
For the compound `COC(=O)N(C)c1c(Cl)ccc(C2=C(O)c3ncccc3C(C)(C)S2(=O)=O)c1Cl` [Compound I-19, Methyl N-[2,6-dichloro-3-(8-hydroxy-5,5-dimethyl-6,6-dioxo-thiopyrano[4,3-b]pyridin-7-yl)phenyl]-N-methyl-carbamate], in the experiment with Zea mays [1] (0.050 kg/ha), the plant injury at 50 g/ha was 20%. Besides, the Herbicidal activity with Setaria faberi (0.050 kg/ha) was found to be 98; in the experiment on Amaranthus retroflexus (0.050 kg/ha) it was 98; in the experiment with Zea mays [3] (0.025 kg/ha) it was 15; with Zea mays [3] (0.05 kg/ha), 35; with Digitaria sanguine (0.025 kg/ha) it was 95; in the experiment on Digitaria sanguine (0.05 kg/ha) it was 98. Moreover, the Herbicidal activity with Digitaria sanguine (0.1 kg/ha) worked out at 95; with Bromus steliris (0.025 kg/ha) it was 80; in the experiment with Bromus steliris (0.05 kg/ha), 85; in the experiment with Bromus steliris (0.1 kg/ha), 95; in the experiment on Setaria viridis [4] (0.025 kg/ha), 85; in the experiment on Setaria viridis [4] (0.05 kg/ha) it was 100. Besides, the Herbicidal activity in the experiment on Setaria viridis [4] (0.1 kg/ha) was found to be 100; with Lolium Multiflori (0.025 kg/ha), 25; in the experiment on Lolium Multiflori (0.05 kg/ha) it was 35; with Lolium Multiflori (0.1 kg/ha), 75; in the experiment with Ambrosia artimisifolio (0.025 kg/ha), 85; in the experiment with Ambrosia artimisifolio (0.05 kg/ha) it was 95. Besides, the Herbicidal activity in the experiment on Ambrosia artimisifolio (0.1 kg/ha) is recorded as 90; in the experiment on Avena Fatua (0.025 kg/ha), 50; in the experiment with Avena Fatua (0.05 kg/ha), 80; in the experiment with Avena Fatua (0.1 kg/ha), 90; in the experiment on Abuthilon avicennae (0.025 kg/ha), 75; in the experiment with Abuthilon avicennae (0.05 kg/ha) it was 85. In addition, the Herbicidal activity in the experiment on Abuthilon avicennae (0.1 kg/ha) was 98; in the experiment with Polygonum convolvulus [5] (0.025 kg/ha), 45; with Polygonum convolvulus [5] (0.05 kg/ha), 45; in the experiment with Polygonum convolvulus [5] (0.1 kg/ha), 95; in the experiment with Echinocloa crus-galli [6] (0.025 kg/ha), 85; with Echinocloa crus-galli [6] (0.05 kg/ha), 90. In the experiment with Echinocloa crus-galli [6] (0.1 kg/ha), this compound showed a Herbicidal activity of 95. Moreover, the pest or weed control at 50 g/ha in the experiment on Echinocloa crus-galli [2] (0.050 kg/ha) worked out at 95%.
As to `CN(C(=O)C(F)F)c1c(Cl)ccc(C2=C(O)c3ncccc3C(C)(C)S2(=O)=O)c1Cl` [Compound I-18, N-[2,6-dichloro-3-(8-hydroxy-5,5-dimethyl-6,6-dioxo-thiopyrano[4,3-b]pyridin-7-yl)phenyl]-2,2-difluoro-N-methyl-acetamide], the plant injury at 125 g/ha with Zea mays [1] came to 30%. Besides, the Herbicidal activity with Setaria faberi (0.125 kg/ha) is 98; in the experiment on Stellaria media (0.125 kg/ha), 100.
In the case of `CN(C(=O)C1CC1)c1c(Cl)ccc(C2=C(O)c3ncccc3C(C)(C)S2(=O)=O)c1Cl` [Compound I-9, N-[2,6-dichloro-3-(8-hydroxy-5,5-dimethyl-6,6-dioxo-thiopyrano[4,3-b]pyridin-7-yl)phenyl]-N-methyl-cyclopropanecarboxamide], the plant injury at 63 g/ha in the experiment on Zea mays [1] (0.063 kg/ha) was found to be 5%. The Herbicidal activity with Setaria viridis [7] amounted to 95; in the experiment on Stellaria media (0.063 kg/ha), 100; in the experiment on Polygonum convolvulus [8], 95.

For orientation: plant injury means the degree to which the test organism was suppressed or injured, in per cent. Low readings indicate weak suppression, high ones strong suppression. Broadly, the pest or weed control is how far the test organism was held down. The low end stands for weak suppression, the high end for strong suppression.

Source of the values: US10167297B2, “Substituted pyridine compounds having herbicidal activity” (BASF SE, priority 2014, dated 2019).
